Measurements from the supplement of paper PMC10307832.

What was measured:
Assay in all cases: relative viability (nuclei count vs DMSO), 5 days (fraction); higher = more cells survive
[1] = tested on: A-427
Summary of the method: (§1)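 Values are medians from duplicate plates. Each reflects relative viability, defined as the nuclei count of treated wells over that of vehicle wells. Lung cancer cell lines in 1536-well plates were pin-tool dosed one day after seeding with one drug alone or with a fixed anchor-drug dose plus five library-drug doses (not always all listed) in √10 steps, then fixed, stained and imaged at 4× after 5 days.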

[2] = tested on: ABC-1
Summary of the method: as §1

[3] = tested on: COR-L23
Summary of the method: as §1

[4] = tested on: ChaGo-K-1
Summary of the method: as §1

[5] = tested on: EMC-BAC-2
Summary of the method: as §1

[6] = tested on: HARA
Summary of the method: as §1

[7] = tested on: HCC-15
Summary of the method: as §1

[8] = tested on: HCC-366
Summary of the method: as §1

[9] = tested on: HCC-78
Summary of the method: as §1

[10] = tested on: LC-2-ad
Summary of the method: as §1

[11] = tested on: NCI-H1734
Summary of the method: as §1

[12] = tested on: NCI-H1793
Summary of the method: as §1

[13] = tested on: NCI-H1944
Summary of the method: as §1

[14] = tested on: NCI-H1993
Summary of the method: as §1

[15] = tested on: NCI-H2009
Summary of the method: as §1

[16] = tested on: NCI-H2023
Summary of the method: as §1

[17] = tested on: NCI-H2126
Summary of the method: as §1

[18] = tested on: NCI-H2228
Summary of the method: as §1

[19] = tested on: NCI-H23
Summary of the method: as §1

[20] = tested on: NCI-H2405
Summary of the method: as §1

[21] = tested on: NCI-H838
Summary of the method: as §1

[22] = tested on: SK-LU-1
Summary of the method: as §1

[23] = tested on: UMC-11
Summary of the method: as §1

Question: How did the relative viability ([1]; first compound 0.01 µM) turn out when `NC(=O)Nc1cc(-c2cccc(F)c2)sc1C(=O)N[C@H]1CCCNC1` [AZD7762] + CC(=O)c1c(C)c2cnc(Nc3ccc(N4CCNCC4)cn3)nc2n(C2CCCC2)c1=O [Palbociclib] (partner 0.5 µM) was run?
Answer: 0.568

Question: What about the relative viability ([1]; first compound 0.03162 µM) of the same molecule?
Answer: 0.552

Question: And the relative viability ([1]; first compound 0.1 µM)?
Answer: 0.595

Question: And the relative viability ([1]; first compound 0.3162 µM)?
Answer: 0.563

Question: What about the relative viability ([1]; first compound 1 µM) of the same molecule?
Answer: 0.334

Question: And the relative viability ([2]; first compound 0.01 µM)?
Answer: 0.884

Question: And the relative viability ([2]; first compound 0.03162 µM)?
Answer: 0.968

Question: What about the relative viability ([2]; first compound 0.1 µM) of the same molecule?
Answer: 0.526

Question: And the relative viability ([2]; first compound 0.3162 µM)?
Answer: 0.948

Question: What about the relative viability ([2]; first compound 1 µM) of the same molecule?
Answer: 0.74

Question: What about the relative viability ([3]; first compound 0.01 µM) of the same molecule?
Answer: 0.307

Question: What about the relative viability ([3]; first compound 0.03162 µM) of the same molecule?
Answer: 0.332

Question: What about the relative viability ([3]; first compound 0.1 µM) of the same molecule?
Answer: 0.412

Question: And the relative viability ([3]; first compound 0.3162 µM)?
Answer: 0.261

Question: What about the relative viability ([3]; first compound 1 µM) of the same molecule?
Answer: 0.117

Question: What about the relative viability ([4]; first compound 0.01 µM) of the same molecule?
Answer: 1.01

Question: And the relative viability ([4]; first compound 0.03162 µM)?
Answer: 0.953

Question: And the relative viability ([4]; first compound 0.1 µM)?
Answer: 0.958

Question: And the relative viability ([4]; first compound 0.3162 µM)?
Answer: 0.932

Question: And the relative viability ([4]; first compound 1 µM)?
Answer: 1.03

Question: And the relative viability ([5]; first compound 0.01 µM)?
Answer: 0.555

Question: What about the relative viability ([5]; first compound 0.03162 µM) of the same molecule?
Answer: 0.527

Question: And the relative viability ([5]; first compound 0.1 µM)?
Answer: 0.537

Question: What about the relative viability ([5]; first compound 0.3162 µM) of the same molecule?
Answer: 0.554

Question: What about the relative viability ([5]; first compound 1 µM) of the same molecule?
Answer: 0.541

Question: What about the relative viability ([6]; first compound 0.01 µM) of the same molecule?
Answer: 0.308

Question: And the relative viability ([6]; first compound 0.03162 µM)?
Answer: 0.245

Question: And the relative viability ([6]; first compound 0.1 µM)?
Answer: 0.254

Question: What about the relative viability ([6]; first compound 0.3162 µM) of the same molecule?
Answer: 0.31

Question: What about the relative viability ([6]; first compound 1 µM) of the same molecule?
Answer: 0.265

Question: What about the relative viability ([7]; first compound 0.01 µM) of the same molecule?
Answer: 0.74

Question: And the relative viability ([7]; first compound 0.03162 µM)?
Answer: 0.738

Question: What about the relative viability ([7]; first compound 0.1 µM) of the same molecule?
Answer: 0.802

Question: And the relative viability ([7]; first compound 0.3162 µM)?
Answer: 0.676

Question: What about the relative viability ([7]; first compound 1 µM) of the same molecule?
Answer: 0.718

Question: What about the relative viability ([8]; first compound 0.01 µM) of the same molecule?
Answer: 0.478

Question: What about the relative viability ([8]; first compound 0.03162 µM) of the same molecule?
Answer: 0.387

Question: And the relative viability ([8]; first compound 0.1 µM)?
Answer: 0.407

Question: What about the relative viability ([8]; first compound 0.3162 µM) of the same molecule?
Answer: 0.28

Question: And the relative viability ([8]; first compound 1 µM)?
Answer: 0.106

Question: And the relative viability ([9]; first compound 0.01 µM)?
Answer: 0.444

Question: And the relative viability ([9]; first compound 0.03162 µM)?
Answer: 0.461

Question: And the relative viability ([9]; first compound 0.1 µM)?
Answer: 0.444

Question: And the relative viability ([9]; first compound 0.3162 µM)?
Answer: 0.518

Question: What about the relative viability ([9]; first compound 1 µM) of the same molecule?
Answer: 0.454

Question: What about the relative viability ([10]; first compound 0.01 µM) of the same molecule?
Answer: 0.499

Question: And the relative viability ([10]; first compound 0.03162 µM)?
Answer: 0.521

Question: And the relative viability ([10]; first compound 0.1 µM)?
Answer: 0.463

Question: What about the relative viability ([10]; first compound 0.3162 µM) of the same molecule?
Answer: 0.365

Question: And the relative viability ([10]; first compound 1 µM)?
Answer: 0.367

Question: What about the relative viability ([11]; first compound 0.01 µM) of the same molecule?
Answer: 0.38

Question: And the relative viability ([11]; first compound 0.03162 µM)?
Answer: 0.364

Question: And the relative viability ([11]; first compound 0.1 µM)?
Answer: 0.395

Question: What about the relative viability ([11]; first compound 0.3162 µM) of the same molecule?
Answer: 0.356

Question: What about the relative viability ([11]; first compound 1 µM) of the same molecule?
Answer: 0.317

Question: What about the relative viability ([12]; first compound 0.01 µM) of the same molecule?
Answer: 0.34

Question: And the relative viability ([12]; first compound 0.03162 µM)?
Answer: 0.343

Question: And the relative viability ([12]; first compound 0.1 µM)?
Answer: 0.373

Question: And the relative viability ([12]; first compound 0.3162 µM)?
Answer: 0.347

Question: What about the relative viability ([12]; first compound 1 µM) of the same molecule?
Answer: 0.225

Question: And the relative viability ([13]; first compound 0.01 µM)?
Answer: 0.383

Question: What about the relative viability ([13]; first compound 0.03162 µM) of the same molecule?
Answer: 0.382

Question: What about the relative viability ([13]; first compound 0.1 µM) of the same molecule?
Answer: 0.409

Question: And the relative viability ([13]; first compound 0.3162 µM)?
Answer: 0.402

Question: And the relative viability ([13]; first compound 1 µM)?
Answer: 0.359

Question: And the relative viability ([14]; first compound 0.01 µM)?
Answer: 0.84

Question: What about the relative viability ([14]; first compound 0.03162 µM) of the same molecule?
Answer: 0.648

Question: What about the relative viability ([14]; first compound 0.1 µM) of the same molecule?
Answer: 0.709

Question: And the relative viability ([14]; first compound 0.3162 µM)?
Answer: 0.589

Question: And the relative viability ([14]; first compound 1 µM)?
Answer: 0.652

Question: What about the relative viability ([15]; first compound 0.01 µM) of the same molecule?
Answer: 0.155

Question: And the relative viability ([15]; first compound 0.03162 µM)?
Answer: 0.214

Question: And the relative viability ([15]; first compound 0.1 µM)?
Answer: 0.221

Question: What about the relative viability ([15]; first compound 0.3162 µM) of the same molecule?
Answer: 0.175

Question: What about the relative viability ([15]; first compound 1 µM) of the same molecule?
Answer: 0.13

Question: And the relative viability ([16]; first compound 0.01 µM)?
Answer: 0.402

Question: And the relative viability ([16]; first compound 0.03162 µM)?
Answer: 0.377

Question: What about the relative viability ([16]; first compound 0.1 µM) of the same molecule?
Answer: 0.219

Question: And the relative viability ([16]; first compound 0.3162 µM)?
Answer: 0.162

Question: What about the relative viability ([16]; first compound 1 µM) of the same molecule?
Answer: 0.095

Question: What about the relative viability ([17]; first compound 0.01 µM) of the same molecule?
Answer: 0.353

Question: What about the relative viability ([17]; first compound 0.03162 µM) of the same molecule?
Answer: 0.363

Question: And the relative viability ([17]; first compound 0.1 µM)?
Answer: 0.346

Question: What about the relative viability ([17]; first compound 0.3162 µM) of the same molecule?
Answer: 0.369

Question: And the relative viability ([17]; first compound 1 µM)?
Answer: 0.397

Question: What about the relative viability ([18]; first compound 0.01 µM) of the same molecule?
Answer: 0.787

Question: What about the relative viability ([18]; first compound 0.03162 µM) of the same molecule?
Answer: 0.937

Question: And the relative viability ([18]; first compound 0.1 µM)?
Answer: 0.896

Question: And the relative viability ([18]; first compound 0.3162 µM)?
Answer: 0.283

Question: And the relative viability ([18]; first compound 1 µM)?
Answer: 0.156

Question: And the relative viability ([19]; first compound 0.01 µM)?
Answer: 0.58

Question: What about the relative viability ([19]; first compound 0.03162 µM) of the same molecule?
Answer: 0.629

Question: And the relative viability ([19]; first compound 0.1 µM)?
Answer: 0.73

Question: And the relative viability ([19]; first compound 0.3162 µM)?
Answer: 0.456

Question: And the relative viability ([19]; first compound 1 µM)?
Answer: 0.281

Question: What about the relative viability ([20]; first compound 0.01 µM) of the same molecule?
Answer: 0.516

Question: What about the relative viability ([20]; first compound 0.03162 µM) of the same molecule?
Answer: 0.538

Question: What about the relative viability ([20]; first compound 0.1 µM) of the same molecule?
Answer: 0.465

Question: What about the relative viability ([20]; first compound 0.3162 µM) of the same molecule?
Answer: 0.507

Question: What about the relative viability ([20]; first compound 1 µM) of the same molecule?
Answer: 0.302

Question: And the relative viability ([21]; first compound 0.01 µM)?
Answer: 0.27

Question: And the relative viability ([21]; first compound 0.03162 µM)?
Answer: 0.198

Question: And the relative viability ([21]; first compound 0.1 µM)?
Answer: 0.243

Question: What about the relative viability ([21]; first compound 0.3162 µM) of the same molecule?
Answer: 0.221

Question: And the relative viability ([21]; first compound 1 µM)?
Answer: 0.221

Question: What about the relative viability ([22]; first compound 0.01 µM) of the same molecule?
Answer: 0.364

Question: What about the relative viability ([22]; first compound 0.03162 µM) of the same molecule?
Answer: 0.418

Question: What about the relative viability ([22]; first compound 0.1 µM) of the same molecule?
Answer: 0.365

Question: And the relative viability ([22]; first compound 0.3162 µM)?
Answer: 0.232

Question: And the relative viability ([22]; first compound 1 µM)?
Answer: 0.232

Question: And the relative viability ([23]; first compound 0.01 µM)?
Answer: 0.373

Question: What about the relative viability ([23]; first compound 0.03162 µM) of the same molecule?
Answer: 0.302

Question: What about the relative viability ([23]; first compound 0.1 µM) of the same molecule?
Answer: 0.34

Question: What about the relative viability ([23]; first compound 0.3162 µM) of the same molecule?
Answer: 0.301

Question: What about the relative viability ([23]; first compound 1 µM) of the same molecule?
Answer: 0.231
